Among the test systems are MDA-MB-435; PC-3 prostate; OVCAR-8 ovarian; MDA-MB-231 breast; T-47D breast; SR leukemia; HL-60(TB) leukemia; A549 NSCLC; HT29 colon; NCI-H23 lung.
Common to all, as to experiment: NCI anticancer screen, dose series, 48 h

Structures are written as SMILES. Several values for one entry are separate records, joined by “and”; a condition that tells them apart may be missing. Equal entries are not always repeated.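 1) Cells in 96-well plates. 2) Compound, 48 h, 5 concentrations. 3) Linear interpolation between surrounding doses. 4) Unreached endpoint = highest concentration. GI50 = concentration required for 50% inhibition of growth. TGI is the concentration that stops growth completely.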

For the compound `CC(C)(C)[Si](C)(C)OCC1OC(n2cnc3c(NC(=O)c4ccccc4)ncnc32)CC1O` (stereo not drawn), the TGI is 44.6 µM with MDA-MB-435; 95.5 µM in the assay with PC-3 prostate; greater than 100 µM with OVCAR-8 ovarian; 55.7 µM with MDA-MB-231 breast; 99.5 µM with T-47D breast; 49.6 µM with SR leukemia. The TGI was 49.2 µM with HL-60(TB) leukemia, greater than 100 µM with A549 NSCLC, greater than 100 µM in the assay on HT29 colon and greater than 100 µM in the assay with NCI-H23 lung.

For `CC(C)CCOc1ccc(-c2n[nH]c(C(F)(F)F)c2-c2cncc(C#N)c2)c(O)c1`, the GI50 in the assay on MDA-MB-435 was 3.6 µM; with PC-3 prostate, 2.12 µM; in the assay on OVCAR-8 ovarian it was 2.78 µM; in the assay on MDA-MB-231 breast, 2.43 µM; with T-47D breast, 1.56 µM; with SR leukemia it was 2.01 µM. The GI50 in the assay with HL-60(TB) leukemia was 1.98 µM; with A549 NSCLC, 2.24 µM; in the assay with HT29 colon it was 2.92 µM; in the assay with NCI-H23 lung, 1.77 µM. Further, the TGI in the assay on MDA-MB-435 is 32.6 µM; in the assay with PC-3 prostate, greater than 100 µM; with OVCAR-8 ovarian, 19.1 µM; in the assay on MDA-MB-231 breast it was 6.43 µM; in the assay with T-47D breast, 6.54 µM; in the assay on SR leukemia, 11.8 µM. The TGI was 5.47 µM in the assay with HL-60(TB) leukemia, 12 µM in the assay with A549 NSCLC, 14.1 µM in the assay on HT29 colon and 7.59 µM with NCI-H23 lung.

Regarding `CC1/C=C/C=C/C=C/C=C/C=C/C=C/C=C/C(O[C@@H]2O[C@H](C)[C@H](O)[C@@H](O)[C@@H]2N)CC(O)C(C(=O)O)C(O)CC(=O)CC(O)CC(O)CC(O)CC(=O)CCCC(=O)CC(=O)OC1C(C)CC(C)C(O)CC(=O)c1ccc(N)cc1` (stereo partly drawn), the GI50 with MDA-MB-435 was 0.0597 µM and 0.208 µM; in the assay with PC-3 prostate it was 0.0646 µM and 0.222 µM; with OVCAR-8 ovarian, 0.0701 µM and 0.347 µM; in the assay on MDA-MB-231 breast, 0.0613 µM and 0.3 µM; with T-47D breast, 0.0722 µM and 0.318 µM; with SR leukemia, 0.0835 µM and 0.168 µM. The GI50 in the assay on HL-60(TB) leukemia was 0.0609 µM and 0.178 µM; in the assay on A549 NSCLC, 0.0561 µM and 0.169 µM; in the assay on HT29 colon, 0.0585 µM and 0.345 µM; with NCI-H23 lung, 0.055 µM and 0.187 µM. The TGI in the assay with MDA-MB-435 is 0.108 µM and 0.438 µM; in the assay with PC-3 prostate, 0.137 µM and 0.552 µM; in the assay with OVCAR-8 ovarian, 0.152 µM and 1.23 µM; in the assay on MDA-MB-231 breast, 0.118 µM and 0.943 µM; in the assay with T-47D breast, 0.188 µM and 1.24 µM; with SR leukemia, 0.254 µM and 0.422 µM. Also, the TGI in the assay on HL-60(TB) leukemia is 0.145 µM and 0.396 µM; in the assay with A549 NSCLC, 0.101 µM and 0.305 µM; in the assay with NCI-H23 lung, 0.102 µM and 0.371 µM.

As for `C/C(=N\NC(=O)c1ccncc1)c1ccc2ccccc2c1O`, the TGI in the assay with MDA-MB-435 was greater than 100 µM; with PC-3 prostate it was 96.9 µM; in the assay on OVCAR-8 ovarian it was 35.3 µM; with MDA-MB-231 breast, greater than 91 µM; with T-47D breast it was 14.5 µM; with SR leukemia, 32 µM. The TGI with HL-60(TB) leukemia is 10.3 µM; in the assay on A549 NSCLC, greater than 100 µM; in the assay on HT29 colon, greater than 58.6 µM; with NCI-H23 lung it was greater than 51 µM.

For `NC(N)=NS(=O)(=O)c1ccc(NCc2c3ccccc3nc3ccccc23)cc1`, the TGI was greater than 100 µM in the assay with MDA-MB-435; greater than 100 µM with PC-3 prostate; 53.8 µM in the assay on OVCAR-8 ovarian; greater than 100 µM in the assay on MDA-MB-231 breast; 23.5 µM in the assay with T-47D breast; 12.6 µM in the assay on SR leukemia. The TGI with HL-60(TB) leukemia is 10.9 µM; with A549 NSCLC, greater than 100 µM; in the assay on HT29 colon, greater than 100 µM; with NCI-H23 lung, 13.2 µM.

Regarding `CCCCCC(O)C1C(=O)OC(C)C(O)/C=C/C=C/C=C/C=C\C=C(\C)C(O)CC(O)CC(O)CC(O)CC(O)CC(O)CC1O` (stereo not drawn), the GI50 in the assay on MDA-MB-435, in the assay with PC-3 prostate, with OVCAR-8 ovarian, in the assay on MDA-MB-231 breast, with T-47D breast and with SR leukemia was greater than 100 µM throughout. Further, the GI50 in the assay with HL-60(TB) leukemia, in the assay on A549 NSCLC, in the assay with HT29 colon and with NCI-H23 lung was greater than 100 µM each time. Also, the TGI with MDA-MB-435, in the assay with PC-3 prostate, in the assay on OVCAR-8 ovarian, in the assay with MDA-MB-231 breast, in the assay with T-47D breast and in the assay on SR leukemia was greater than 100 µM in each case. The TGI in the assay on HL-60(TB) leukemia, in the assay on A549 NSCLC, in the assay on HT29 colon and with NCI-H23 lung was greater than 100 µM each time.

Turning to `CC(=O)OC1CC(n2cc(F)c(=O)[nH]c2=O)OC1CO` (stereo not drawn), the TGI with MDA-MB-435, in the assay on PC-3 prostate, with OVCAR-8 ovarian, with MDA-MB-231 breast, with T-47D breast and with SR leukemia was greater than 100 µM in each case. The TGI in the assay on HL-60(TB) leukemia was greater than 100 µM; with A549 NSCLC, greater than 90.8 µM; with HT29 colon, greater than 100 µM; in the assay with NCI-H23 lung, 77.1 µM.

With `O=P(O)(O)c1ccccc1` (tested in a mixture with another compound), the TGI with MDA-MB-435, in the assay on PC-3 prostate, in the assay with OVCAR-8 ovarian, in the assay on MDA-MB-231 breast, in the assay on T-47D breast and in the assay with SR leukemia was greater than 100 µM throughout. Besides, the TGI in the assay with HL-60(TB) leukemia, in the assay on A549 NSCLC, with HT29 colon and in the assay with NCI-H23 lung was greater than 100 µM each time.

For `COc1cc(NCCCCN=C(N)NC(N)=NC(C)C)c2ncccc2c1`, the GI50 in the assay on MDA-MB-435 is 12.9 µM; in the assay with PC-3 prostate, 2.22 µM; with OVCAR-8 ovarian, 8.18 µM; in the assay with MDA-MB-231 breast it was 1.94 µM; with T-47D breast it was 0.739 µM; in the assay on SR leukemia, 7.01 µM. Also, the GI50 in the assay on HL-60(TB) leukemia is 3.47 µM; with A549 NSCLC it was 35.4 µM; in the assay with HT29 colon it was 7.49 µM; with NCI-H23 lung, 0.984 µM. For the same compound, the TGI in the assay with MDA-MB-435 stood at 26.7 µM; in the assay with PC-3 prostate, 16.8 µM; in the assay with OVCAR-8 ovarian it was 27.7 µM; in the assay on MDA-MB-231 breast, 17.8 µM; in the assay with T-47D breast, 8.2 µM; in the assay with SR leukemia it was 32.6 µM. The TGI in the assay on HL-60(TB) leukemia was 10.9 µM; in the assay on A549 NSCLC, greater than 100 µM; in the assay with HT29 colon, 32.2 µM; in the assay on NCI-H23 lung it was 10.1 µM.

Regarding `O=C1C(Br)=CC2(C=C1Br)CCN=c1c2c(O)c2nc3ccccc3c3ccnc1c23`, the GI50 in the assay with MDA-MB-435 is 1.18 µM; with PC-3 prostate, 1.44 µM; in the assay with OVCAR-8 ovarian, 0.918 µM; in the assay with MDA-MB-231 breast it was 3.59 µM; in the assay with T-47D breast, 1.13 µM; in the assay with SR leukemia it was 0.195 µM. Further, the GI50 with HL-60(TB) leukemia is 2.07 µM; with A549 NSCLC, 6.69 µM; in the assay with HT29 colon, 1.07 µM; in the assay with NCI-H23 lung, 1.91 µM. In addition, the TGI in the assay on MDA-MB-435 came out at 3.09 µM; in the assay with PC-3 prostate, 5.27 µM; in the assay on OVCAR-8 ovarian, 2.39 µM; with MDA-MB-231 breast it was 12.1 µM; with T-47D breast it was 3.76 µM; with SR leukemia, 5.83 µM. The TGI turned out to be 5.59 µM with HL-60(TB) leukemia, 28.4 µM with A549 NSCLC, 3.02 µM in the assay with HT29 colon and 8.41 µM with NCI-H23 lung.

`CN(C)c1ccc(/C=C(/NC(=O)c2ccccc2)c2nc3ccc(Cl)cc3[nH]2)cc1`: the GI50 in the assay on MDA-MB-435 was 29.8 µM; with PC-3 prostate it was 29.2 µM; with MDA-MB-231 breast, 28.4 µM; in the assay on T-47D breast, 17.5 µM. Moreover, the TGI was greater than 100 µM with MDA-MB-435; greater than 100 µM with PC-3 prostate; greater than 100 µM in the assay with OVCAR-8 ovarian; greater than 95.3 µM with MDA-MB-231 breast; greater than 77.1 µM in the assay on T-47D breast; greater than 89.4 µM in the assay on SR leukemia. Further, the TGI with HL-60(TB) leukemia was 66.9 µM; in the assay with A549 NSCLC it was greater than 100 µM; in the assay on HT29 colon it was 78.5 µM; in the assay with NCI-H23 lung, greater than 100 µM.

On to `O=C1OCC(c2cccs2)=C1Cl`, for which the GI50 in the assay with MDA-MB-435 was greater than 100 µM; in the assay on PC-3 prostate, greater than 100 µM; with OVCAR-8 ovarian, 90.1 µM; in the assay with MDA-MB-231 breast, 24.7 µM; in the assay on T-47D breast it was 7.47 µM; in the assay on SR leukemia, greater than 100 µM. The GI50 is greater than 100 µM in the assay with HL-60(TB) leukemia, 41.1 µM in the assay on A549 NSCLC, 62.4 µM in the assay with HT29 colon and 60.6 µM with NCI-H23 lung. Moreover, the TGI with MDA-MB-435 is greater than 100 µM; in the assay with PC-3 prostate it was greater than 100 µM; in the assay with OVCAR-8 ovarian it was greater than 100 µM; in the assay on MDA-MB-231 breast it was 98.2 µM; with T-47D breast, greater than 100 µM; in the assay on SR leukemia it was greater than 100 µM. The TGI in the assay on HL-60(TB) leukemia, with A549 NSCLC, in the assay on HT29 colon and with NCI-H23 lung was greater than 100 µM in each case.

Values taken from PubChem BioAssay (NCI).
